Results on 20 compounds are retold here after US4820834A, “Benzodiazepine analogs” (priority 1987, dated 1989).

Each structure is given as a SMILES string. Like-named read-outs stand apart in the source and are kept apart here.

For orientation: IC50 means the midpoint of a concentration-inhibition curve.

The target of assay [1] is T1, Gastrin receptor (gastric glands) (Cavia porcellus, UniProt H0VZC5).
T1 construct: The washed guinea pig gastric glands prepared as above were resuspended; from tissue; host or cells: guinea pig gastric mucosal glands (male Hartley)
T1 sequence (H0VZC5 1-426): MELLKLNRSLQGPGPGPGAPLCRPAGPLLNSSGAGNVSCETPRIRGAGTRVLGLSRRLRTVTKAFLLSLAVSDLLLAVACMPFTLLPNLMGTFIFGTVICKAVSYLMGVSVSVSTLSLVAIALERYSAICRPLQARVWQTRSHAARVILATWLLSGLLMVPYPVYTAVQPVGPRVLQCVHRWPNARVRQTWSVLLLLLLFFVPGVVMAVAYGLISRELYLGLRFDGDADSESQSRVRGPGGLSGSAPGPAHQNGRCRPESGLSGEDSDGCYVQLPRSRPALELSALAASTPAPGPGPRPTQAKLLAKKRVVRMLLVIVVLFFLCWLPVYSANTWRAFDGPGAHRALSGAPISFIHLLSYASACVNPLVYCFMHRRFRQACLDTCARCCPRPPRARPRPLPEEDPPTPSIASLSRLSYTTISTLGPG
Description: Gastrin Receptor Binding in Guinea Pig Gastric Glands. Set-up: species or system guinea pig (male Hartley). To be noted: 25° C., 30 minutes.

Assay [2] has as its target T2, CCK receptor (brain, cerebral cortex) (Cavia porcellus, UniProt H0VZC5).
T2 construct: Cerebral cortex was dissected and used as a receptor source; from tissue; host or cells: guinea pig cerebral cortex membranes (male Hartley)
T2 sequence (H0VZC5 1-426): T1 sequence (H0VZC5 1-426)
Description: biochemical. The class given is binding, Male Hartley guinea pigs. Conditions: guinea pig cerebral cortex, ^125 I-CCK-33, 25° C., 2 hours. A digest of the protocol:
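Binding of [radiolabeled] CCK-33 measured by gamma counting of centrifuged pellets after 2 h at 25°C. Membranes came from guinea pig brain cortex, suspended in 10 mM HEPES, 5 mM MgCl2, 1 mM EGTA, 0.25 mg/ml bacitracin, 0.4% BSA.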

Assay [3] has as its target T3, CCK receptor (pancreas) (Rattus norvegicus, UniProt P30551).
T3 construct: The whole pancreas was dissected free of fat tissue and was homogenized; from tissue; host or cells: rat pancreas membranes (Sprague-Dawley)
T3 sequence (P30551 1-444): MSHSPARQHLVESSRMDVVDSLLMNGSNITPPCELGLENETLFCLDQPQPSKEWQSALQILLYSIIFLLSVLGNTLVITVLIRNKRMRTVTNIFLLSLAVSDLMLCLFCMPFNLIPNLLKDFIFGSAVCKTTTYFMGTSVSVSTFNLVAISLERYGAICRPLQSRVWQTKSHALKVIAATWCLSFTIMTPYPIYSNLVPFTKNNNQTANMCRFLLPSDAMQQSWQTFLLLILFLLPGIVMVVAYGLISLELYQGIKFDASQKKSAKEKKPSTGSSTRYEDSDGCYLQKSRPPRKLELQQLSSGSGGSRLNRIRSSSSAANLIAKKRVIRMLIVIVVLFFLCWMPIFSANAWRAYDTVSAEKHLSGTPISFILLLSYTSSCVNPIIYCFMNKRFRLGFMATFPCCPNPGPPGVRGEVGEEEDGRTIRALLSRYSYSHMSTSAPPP
Description: CCK Receptor Binding (Pancreas): inhibition of ^125 I-CCK-33 binding. Also on record: species or system Male Sprague-Dawley rats. To be noted: rat pancreas membranes, ^125 I-CCK-33, 37° C., 30 minutes. A digest of the protocol: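 Bound ^125I-CCK-33 was counted in pellets after a 30 min, 37° C incubation followed by centrifugation. Membranes came from male Sprague-Dawley rat pancreas, assayed in Tris HCl pH 7.7 containing DTT, bacitracin, PMSF and o-phenanthroline. For Scatchard analysis, tracer was diluted with rising unlabelled CCK-33.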

[4] abbreviates: IC50 ^125 I-Gastrin Gastric Glands.
[5] abbreviates: read-out: IC50 ^125 I-CCK Pancreas.
[6] abbreviates: ^125 I-gastrin, read-out: IC50 ^125 I-Gastrin Gastric Glands.
Setting [7] is: read-out: IC50 ^125 I-CCK Brain.

Regarding `CN1C(=O)C(NC(=O)Nc2cccc([N+](=O)[O-])c2)N=C(c2ccccc2)c2ccccc21` (stereo not drawn) [Example 264, N-(2,3-Dihydro-1-methyl-2-oxo-5-phenyl-1H-1,4-benzodiazepin-3-yl)-N'-(3-nitrophenyl)-urea], the IC50 was 6 nM in assay [1] (setting [4]), 11 nM in assay [2] (IC50 ^125 I-CCK Brain) and 34 nM in assay [3] (setting [5]).
For `CN1C(=O)C(NC(=O)Nc2cccc(Cl)c2)N=C(c2ccccc2)c2ccccc21` (stereo not drawn) [Example 265, N-(3-Chlorophenyl)-N'-(2,3-dihydro-1-methyl-2-oxo-5-phenyl-1H-1,4-benzodiazepin-3-yl)urea], the IC50 in assay [1] (setting [4]) turned out to be 3.1 nM; in assay [2] (IC50 ^125 I-CCK Brain), 9.8 nM; in assay [3] (setting [5]), 8.2 nM.
With `COc1cccc(NC(=O)N[C@@H]2N=C(c3ccccc3)c3ccccc3N(C)C2=O)c1` [Example 266, (R)-N-(2,3-Dihydro-1-methyl-2-oxo-5-phenyl-1H-1,4-benzodiazepin-3-yl)-N'-(3-methoxyphenyl)-urea], the IC50 stood at 1.3 nM in assay [1] (setting [6]), 2.2 nM in assay [2] (IC50 ^125 I-CCK Brain) and 600 nM in assay [3] (setting [5]).
The corresponding values for `COc1cccc(NC(=O)N[C@H]2N=C(c3ccccc3)c3ccccc3N(C)C2=O)c1` [Example 267, (S)-N-(2,3-Dihydro-1-methyl-2-oxo-5-phenyl-1H-1,4-benzodiazepin-3-yl)-N'-(3-methoxyphenyl)-urea] are 190 nM, 290 nM and 1.3 nM.
In the case of `COc1cccc(CC(=O)N[C@H]2N=C(c3ccccc3)c3ccccc3N(C)C2=O)c1` [Example 268, (S)-N-(2,3-Dihydro-1-methyl-2-oxo-5-phenyl-1H-1,4-benzodiazepin-3-yl)-3-methoxybenzeneacetamide], the figures for the IC50 in assay [1] (setting [6]), in assay [2] (setting [7]) and in assay [3] (IC50 ^125 I-CCK Pancreas) were 420 nM, 2100 nM and 330 nM, respectively.
The corresponding values for `COc1cccc(CC(=O)N[C@@H]2N=C(c3ccccc3)c3ccccc3N(C)C2=O)c1` [Example 269, (R)-N-(2,3-Dihydro-1-methyl-2-oxo-5-phenyl-1H-1,4-benzodiazepin-3-yl)-3-methoxybenzenacetamide] are 450 nM, 690 nM and 45000 nM.
Take `CN1C(=O)C(NC(=O)Nc2ccccc2[N+](=O)[O-])N=C(c2ccccc2)c2ccccc21` (stereo not drawn) [Example 270, N-(2,3-Dihydro-1-methyl-2-oxo-5-phenyl-1H-1,4-benzodiazepin-3-yl)-N'-(2-nitrophenyl)-urea]: the IC50 in assay [1] (setting [4]) was 500 nM; in assay [2] (IC50 ^125 I-CCK Brain) it was 1200 nM; in assay [3] (setting [5]), 3 nM.
Taken in the same sequence, the figures for `CN1C(=O)C(NC(=O)Nc2cccc(F)c2)N=C(c2ccccc2)c2ccccc21` (stereo not drawn) [Example 271, N-(2,3-Dihydro-1-methyl-2-oxo-5-phenyl-1H-1,4-benzodiazepin-3-yl)-N'-(3-fluorophenyl)-urea] were 10 nM, 54 nM and 10 nM.
Taken in the same sequence, the figures for `CN1C(=O)C(NC(=O)Nc2cccc(Br)c2)N=C(c2ccccc2)c2ccccc21` (stereo not drawn) [Example 272, N-(3-Bromophenyl)-N'-(2,3-dihydro-1-methyl-2-oxo-5-phenyl-1H-1,4-benzodiazepin-3-yl)-urea] were 2.8 nM, 5 nM and 4.4 nM.
For the compound `CN1C(=O)C(NC(=O)Nc2cccc3ccccc23)N=C(c2ccccc2)c2ccccc21` (stereo not drawn) [Example 273, N-(2,3-Dihydro-1-methyl-2-oxo-5-phenyl-1H-1,4-benzodiazepin-3-yl)-N'-1-naphthalenyl-urea], the IC50 is 57 nM in assay [1] (setting [6]), 79 nM in assay [2] (setting [7]) and 8.6 nM in assay [3] (IC50 ^125 I-CCK Pancreas).
Consider `COc1cc(NC(=O)NC2N=C(c3ccccc3)c3ccccc3N(C)C2=O)cc(OC)c1` (stereo not drawn) [Example 274], for which the results for the IC50 in assay [1] (setting [6]), in assay [2] (setting [7]) and in assay [3] (setting [5]) were 1600 nM, 2300 nM and 310 nM, respectively.
Turning to `COc1cccc(NC(=O)NC2N=C(c3ccccc3)c3ccccc3NC2=O)c1` (stereo not drawn) [Example 275, N-(2,3-Dihydro-2-oxo-5-phenyl-1H-1,4-benzodiazepin-3-yl)-N'-(3-methoxyphenyl)-urea], the IC50 in assay [1] (setting [4]) turned out to be 120 nM; in assay [2] (IC50 ^125 I-CCK Brain) it was 110 nM; in assay [3] (IC50 ^125 I-CCK Pancreas), 20 nM.
Consider `CN1C(=O)[C@@H](NC(=O)Nc2ccccc2Cl)N=C(c2ccccc2)c2ccccc21` [Example 276, (S)-N-(2,3-Dihydro-1-methyl-2-oxo-5-phenyl-1H-1,4-benzodiazepin-3-yl)-N'-(2-chlorophenyl)-urea], for which the IC50 amounted to 240 nM in assay [1] (setting [6]), 280 nM in assay [2] (setting [7]) and 0.39 nM in assay [3] (IC50 ^125 I-CCK Pancreas).
The corresponding values for `CN1C(=O)C(NC(=S)Nc2ccccc2)N=C(c2ccccc2)c2ccccc21` (stereo not drawn) [Example 277, N-(2,3-Dihydro-1-methyl-2-oxo-5-phenyl-1H-1,4-benzodiazepin-3-yl)-N'-phenylthiourea] are 2600 nM, 860 nM and 18 nM.
In the case of `COc1ccccc1NC(=O)NC1N=C(c2ccccc2)c2ccccc2N(C)C1=O` (stereo not drawn) [Example 278, N-(2,3-Dihydro-1-methyl-2-oxo-5-phenyl-1H-1,4-benzodiazepin-3-yl)-N'-(2-methoxyphenyl)-urea], the IC50 in assay [1] (setting [6]) came to 1000 nM; in assay [2] (setting [7]) it was 1200 nM; in assay [3] (setting [5]) it was 600 nM.
For `CC(C)(C)C(=O)OCOC(=O)CN1C(=O)C(NC(=O)c2cc3ccccc3[nH]2)N=C(c2ccccc2)c2ccccc21` (stereo not drawn) [Example 279, 1-Pivaloyloxymethyloxycarbonylmethyl-1,3-dihydro-3-(2-indolecarbonylamino)-5-phenyl-2H-1,4-benzodiazepin-2-one], the IC50 in assay [1] (setting [6]) was determined as 600 nM; in assay [2] (setting [7]), 310 nM; in assay [3] (IC50 ^125 I-CCK Pancreas), 11 nM.
For the compound `COc1cccc(NC(=O)NC2N=C(c3ccccc3)c3ccccc3NC2=S)c1` (stereo not drawn) [Example 280, N-(2,3-Dihydro-5-phenyl-2-thioxo-1H-1,4-benzodiazepin-3-yl)-N'-(3-methoxyphenyl)-urea], the 50% inhibitory concentration (IC50) in assay [1] (setting [4]) is 250 nM; in assay [2] (IC50 ^125 I-CCK Brain), 970 nM; in assay [3] (IC50 ^125 I-CCK Pancreas), 15 nM.
Turning to `CN1C(=O)[C@H](NC(=O)Nc2cccc(Br)c2)N=C(c2ccccc2)c2ccccc21` [Example 282, (R)-N-(2,3-Dihydro-1-methyl-2-oxo-5-phenyl-1H-1,4-benzodiazepin-3-yl)-N'-(3-bromophenyl)-urea], the half-inhibitory concentration (IC50) in assay [1] (setting [4]) was determined as 1.6 nM; in assay [2] (IC50 ^125 I-CCK Brain) it was 3.8 nM; in assay [3] (setting [5]) it was 840 nM.
In the case of `COc1cccc(NC(=O)NC2N=C(c3ccccc3)c3ccccc3N(CC(=O)N3CCCC3)C2=O)c1` (stereo not drawn) [Example 284, 1-{[3-[(((3-Methoxyphenyl)amino)carbonyl)amino]-2,3-dihydro-2-oxo-5-phenyl-1H-1,4-benzodiazepin-1-yl]acetyl}pyrrolidine], the IC50 turned out to be 0.5 nM in assay [1] (setting [4]), 0.34 nM in assay [2] (IC50 ^125 I-CCK Brain) and 17 nM in assay [3] (IC50 ^125 I-CCK Pancreas).
In the case of `CCN(CC)C(=O)CN1C(=O)C(NC(=O)Nc2cccc(OC)c2)N=C(c2ccccc2)c2ccccc21` (stereo not drawn) [Example 285, 3-{[((3-Methoxyphenyl)amino)carbonyl)amino]-N,N-diethyl-2,3-dihydro-2-oxo-5-phenyl-1H-1,4-benzodiazepin-1-acetamide], the IC50 was 0.26 nM in assay [1] (setting [6]), 0.22 nM in assay [2] (setting [7]) and above 100 nM in assay [3] (IC50 ^125 I-CCK Pancreas).
